Reference: PubChem BioAssay (NCI)
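Five compound concentrations were applied to cells in 96-well plates for 48 hours; endpoints were derived by simple linear interpolation of the resulting dose-response curve. Abbreviation: GI50, concentration required for 50% inhibition of growth. TGI is the concentration that stops growth completely.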

How the values were obtained:
Assay in all cases: inhibition of tumour cell growth, NCI panel, 48 h
RPMI-8226 leukemia = system: RPMI-8226 leukemia
MDA-MB-435 = system: MDA-MB-435
HT29 colon = system: HT29 colon
M14 melanoma = system: M14 melanoma
U251 CNS = system: U251 CNS
SK-OV-3 ovarian = system: SK-OV-3 ovarian
CCRF-CEM leukemia = system: CCRF-CEM leukemia
SN12C renal = system: SN12C renal
CAKI-1 renal = system: CAKI-1 renal
EKVX NSCLC = system: EKVX NSCLC
OVCAR-4 ovarian = system: OVCAR-4 ovarian
HS 578T breast = system: HS 578T breast
RXF 393 renal = system: RXF 393 renal
UO-31 renal = system: UO-31 renal
SW-620 colon = system: SW-620 colon
NCI-H522 lung = system: NCI-H522 lung
SF-268 CNS = system: SF-268 CNS
NCI/ADR-RES ovarian = system: NCI/ADR-RES ovarian
SK-MEL-2 melanoma = system: SK-MEL-2 melanoma
COLO 205 colon = system: COLO 205 colon
K-562 leukemia = system: K-562 leukemia
OVCAR-5 ovarian = system: OVCAR-5 ovarian
ACHN renal = system: ACHN renal
IGROV1 ovarian = system: IGROV1 ovarian
KM12 colon = system: KM12 colon
HCC-2998 colon = system: HCC-2998 colon
SF-539 CNS = system: SF-539 CNS
MOLT-4 leukemia = system: MOLT-4 leukemia
UACC-257 melanoma = system: UACC-257 melanoma
SK-MEL-28 melanoma = system: SK-MEL-28 melanoma
BT-549 breast = system: BT-549 breast
SR leukemia = system: SR leukemia
NCI-H460 lung = system: NCI-H460 lung
T-47D breast = system: T-47D breast
786-0 renal = system: 786-0 renal
MDA-MB-231 breast = system: MDA-MB-231 breast
HCT-15 colon = system: HCT-15 colon
LOX IMVI melanoma = system: LOX IMVI melanoma
DU-145 prostate = system: DU-145 prostate
MALME-3M melanoma = system: MALME-3M melanoma
HOP-62 NSCLC = system: HOP-62 NSCLC
SF-295 CNS = system: SF-295 CNS
A549 NSCLC = system: A549 NSCLC
OVCAR-3 ovarian = system: OVCAR-3 ovarian
NCI-H23 lung = system: NCI-H23 lung
HL-60(TB) leukemia = system: HL-60(TB) leukemia
MCF7 breast = system: MCF7 breast
SNB-19 CNS = system: SNB-19 CNS
HCT-116 colon = system: HCT-116 colon
NCI-H226 lung = system: NCI-H226 lung
A498 renal = system: A498 renal
SNB-75 CNS = system: SNB-75 CNS
SK-MEL-5 melanoma = system: SK-MEL-5 melanoma
UACC-62 melanoma = system: UACC-62 melanoma
TK-10 renal = system: TK-10 renal
PC-3 prostate = system: PC-3 prostate
HOP-92 NSCLC = system: HOP-92 NSCLC
OVCAR-8 ovarian = system: OVCAR-8 ovarian

## O=c1c(Cl)cc2nc3ccccc3sc-2c1Cl
RPMI-8226 leukemia
  TGI: 25.9 µM
MDA-MB-435
  TGI: 7.8 µM
HT29 colon
  TGI: 49.2 µM
M14 melanoma
  TGI: 37.2 µM
U251 CNS
  TGI: 43.2 µM
SK-OV-3 ovarian
  TGI: 39 µM
CCRF-CEM leukemia
  TGI: 43.3 µM
SN12C renal
  TGI: 31.9 µM
CAKI-1 renal
  TGI: 37.8 µM
EKVX NSCLC
  TGI: 14.9 µM
OVCAR-4 ovarian
  TGI: 27.4 µM
HS 578T breast
  TGI: > 100 µM
RXF 393 renal
  TGI: 32.5 µM
UO-31 renal
  TGI: 29.1 µM
SW-620 colon
  TGI: 34.9 µM
NCI-H522 lung
  TGI: 25.9 µM
SF-268 CNS
  TGI: 28.5 µM
NCI/ADR-RES ovarian
  TGI: 56.9 µM
SK-MEL-2 melanoma
  TGI: 27.1 µM
COLO 205 colon
  TGI: 38 µM
K-562 leukemia
  TGI: > 100 µM
OVCAR-5 ovarian
  TGI: 78.9 µM
ACHN renal
  TGI: 30.2 µM
IGROV1 ovarian
  TGI: 28.1 µM
KM12 colon
  TGI: 38.4 µM
HCC-2998 colon
  TGI: 34.7 µM
SF-539 CNS
  TGI: 30.8 µM
MOLT-4 leukemia
  TGI: > 100 µM
UACC-257 melanoma
  TGI: 8.2 µM
SK-MEL-28 melanoma
  TGI: 35.2 µM
BT-549 breast
  TGI: 24.6 µM
SR leukemia
  TGI: 30 µM
NCI-H460 lung
  TGI: 35.1 µM
T-47D breast
  TGI: > 100 µM
786-0 renal
  TGI: 45.8 µM
MDA-MB-231 breast
  TGI: 21.3 µM
HCT-15 colon
  TGI: 32.3 µM
LOX IMVI melanoma
  TGI: 43 µM
DU-145 prostate
  TGI: 25.8 µM
MALME-3M melanoma
  TGI: 23.6 µM
HOP-62 NSCLC
  TGI: 46.1 µM
SF-295 CNS
  TGI: 34.4 µM
A549 NSCLC
  TGI: 40.9 µM
OVCAR-3 ovarian
  TGI: 5.93 µM
NCI-H23 lung
  TGI: 28 µM
HL-60(TB) leukemia
  TGI: 38.4 µM
MCF7 breast
  TGI: 32.4 µM
SNB-19 CNS
  TGI: 32.9 µM
HCT-116 colon
  TGI: 32.5 µM
NCI-H226 lung
  TGI: 32.3 µM
A498 renal
  TGI: 80.7 µM
SNB-75 CNS
  TGI: 32.7 µM
SK-MEL-5 melanoma
  TGI: 13.9 µM
UACC-62 melanoma
  TGI: 24.4 µM
TK-10 renal
  TGI: 33.1 µM

## CC(C)CCCC(C)[C@H]1CC[C@H]2N=C(NCc3ccccc3)CCC[C@]12C (some centres undefined)
HT29 colon
  TGI: 3.17 µM
SK-OV-3 ovarian
  TGI: 20.1 µM
CCRF-CEM leukemia
  TGI: 5.42 µM
SN12C renal
  TGI: 3.62 µM
CAKI-1 renal
  TGI: 5.65 µM
OVCAR-4 ovarian
  TGI: 8.75 µM
HS 578T breast
  TGI: 9.48 µM
RXF 393 renal
  TGI: 3.14 µM
UO-31 renal
  TGI: 8.29 µM
SW-620 colon
  TGI: 4.45 µM
SF-268 CNS
  TGI: 8.92 µM
NCI/ADR-RES ovarian
  TGI: 3.15 µM
COLO 205 colon
  TGI: 2.77 µM
K-562 leukemia
  TGI: 3.23 µM
UACC-257 melanoma
  TGI: 5.24 µM
SK-MEL-28 melanoma
  TGI: 2.96 µM
BT-549 breast
  TGI: 8.19 µM
SR leukemia
  TGI: 7.84 µM
NCI-H460 lung
  TGI: 3.34 µM
T-47D breast
  TGI: 8.01 µM
HOP-62 NSCLC
  TGI: 8.56 µM
PC-3 prostate
  TGI: 4.93 µM
SF-295 CNS
  TGI: 3.62 µM
OVCAR-3 ovarian
  TGI: 5.33 µM
HL-60(TB) leukemia
  TGI: 7.63 µM
HOP-92 NSCLC
  TGI: 5.67 µM
MCF7 breast
  TGI: 3.29 µM
SNB-19 CNS
  TGI: 8.75 µM
HCT-116 colon
  TGI: > 100 µM
A498 renal
  TGI: 4.77 µM
SNB-75 CNS
  TGI: 3.52 µM
SK-MEL-5 melanoma
  TGI: 3.06 µM
UACC-62 melanoma
  TGI: 3.48 µM
TK-10 renal
  TGI: 5.45 µM

## COc1cc(/C=C2\C[C@H]3[C@@H]4CC=C5C[C@@H](OC(C)=O)CC[C@]5(C)[C@H]4CC[C@]3(C)[C@H]2OC(C)=O)ccc1OCCN1CCCC1
RPMI-8226 leukemia
  GI50: 1.07 µM
  TGI: 13.4 µM
MDA-MB-435
  GI50: 13.3 µM
  TGI: 27.2 µM
HT29 colon
  GI50: 11.7 µM
  TGI: > 50 µM
OVCAR-8 ovarian
  GI50: 10.3 µM
  TGI: 21.4 µM
M14 melanoma
  GI50: 8.56 µM
  TGI: 30.4 µM
CCRF-CEM leukemia
  GI50: 0.935 µM
  TGI: 18.8 µM
SN12C renal
  GI50: 7.79 µM
  TGI: 15.7 µM
CAKI-1 renal
  GI50: 12 µM
  TGI: 25.6 µM
HS 578T breast
  GI50: 9.32 µM
  TGI: 18.8 µM
RXF 393 renal
  GI50: 14.6 µM
  TGI: 30.8 µM
UO-31 renal
  GI50: 13.1 µM
  TGI: 28.9 µM
NCI-H522 lung
  GI50: 18.1 µM
  TGI: > 50 µM
SF-268 CNS
  GI50: 8.94 µM
  TGI: 18.8 µM
NCI/ADR-RES ovarian
  GI50: 10.2 µM
  TGI: 20.6 µM
SK-MEL-2 melanoma
  GI50: 20.2 µM
  TGI: > 50 µM
COLO 205 colon
  GI50: 13.3 µM
  TGI: > 50 µM
K-562 leukemia
  GI50: 4 µM
  TGI: 12.6 µM
OVCAR-5 ovarian
  GI50: 10 µM
  TGI: 20.1 µM
IGROV1 ovarian
  GI50: 19.3 µM
  TGI: > 50 µM
KM12 colon
  GI50: 8.81 µM
  TGI: 17.7 µM
HCC-2998 colon
  GI50: 8.01 µM
  TGI: 15.4 µM
SF-539 CNS
  GI50: 8.7 µM
  TGI: 17.3 µM
MOLT-4 leukemia
  GI50: 10.7 µM
  TGI: > 50 µM
UACC-257 melanoma
  GI50: 10.8 µM
  TGI: 20.1 µM
SK-MEL-28 melanoma
  GI50: 12.8 µM
  TGI: > 50 µM
NCI-H460 lung
  GI50: 10.2 µM
  TGI: 23.1 µM
T-47D breast
  GI50: 12.4 µM
  TGI: 32 µM
786-0 renal
  GI50: 8.82 µM
  TGI: 18.3 µM
MDA-MB-231 breast
  GI50: 9.01 µM
  TGI: 17 µM
DU-145 prostate
  GI50: 1.3 µM
  TGI: 9.69 µM
HOP-62 NSCLC
  GI50: 9.43 µM
  TGI: 20.5 µM
PC-3 prostate
  GI50: 8 µM
  TGI: 20.4 µM
SF-295 CNS
  GI50: 12.6 µM
  TGI: 25.4 µM
A549 NSCLC
  GI50: 10.9 µM
  TGI: 21.6 µM
OVCAR-3 ovarian
  GI50: 10.9 µM
  TGI: 23.6 µM
NCI-H23 lung
  GI50: 10.1 µM
  TGI: 19 µM
HL-60(TB) leukemia
  GI50: 10.3 µM
  TGI: 20.6 µM
HOP-92 NSCLC
  GI50: 5.45 µM
  TGI: 13.4 µM
MCF7 breast
  GI50: 11.1 µM
  TGI: 29.6 µM
SNB-19 CNS
  GI50: 10.9 µM
  TGI: 22.5 µM
HCT-116 colon
  GI50: 10.5 µM
  TGI: 30.7 µM
NCI-H226 lung
  GI50: 9.67 µM
  TGI: 18.6 µM
SK-MEL-5 melanoma
  GI50: 6.97 µM
  TGI: 15.1 µM
UACC-62 melanoma
  GI50: 9.48 µM
  TGI: 17.5 µM
TK-10 renal
  GI50: 9.07 µM
  TGI: 19.7 µM
